Experimental data as given in US8940775B2, “Use of derivatives of pentaphyrine as antimicrobial and disinfectant agents” (Universita' Degli Studi di Udine, priority 2010, dated 2015).
Several values for one entry are separate records, joined by “and”; a condition that tells them apart may be missing. Identical values can stand only once.

Columns and labels:
Type in all cases: cell-based
[1] = test system: Gram-positive bacterial population of the genus Enterococcus; assay: Photo-oxidation test on primary effluent of a purification plant; settings: PCCox 20 μM
Description: FIG. 12. Photo-oxidation test for evaluating the antibacterial activity of the pentaphyrine PCCox (concentration of solution 20 μM) on a real sample, in this case primary effluent of a purification plant for treating municipal waste. The activity of PCCox was evaluated with respect to the Gram-positive bacterial population of the genus Enterococcus, which is present in the sample treated at a concentration equal to 10^4 CFU/mL. The test was carried out with a source of blue light (473 nm) at a luminous intensity equal to 50 W/m^2. The percentage survival of enterococci following treatment with PCCox, in the experimental conditions, is equal to 31%. […]
(§1) The photo-oxidation tests were performed on a culture volume equal to 1 mL, using a plate with 48 wells with diameter of 1 cm and capacity of 1.5 mL. […] The intrinsic toxicity, i.e. the toxicity not induced by the light, of the PCCox was evaluated on bacterial cultures of S. aureus and E. hirae incubated for 60 minutes in the dark with various concentrations of PCCox: in FIG. 3 are reported the results obtained on S. aureus; similar results were obtained with E. hirae. […]
(§2) At each time interval, a volume of bacterial suspension of 100 μL is taken and is diluted in PBS 0.01 M using an optimum dilution factor for the bacterial culture. […] These samples are analysed at the end of the treatment. […]

S. aureus ATCC 6538 = assay: Photo-oxidation test, antibacterial activity on S. aureus; settings: for Percentage bacterial load die-off: initial 10^8 CFU/ml S. aureus, 100 W lamp, 40 W/m^2
Description: (§3) The bacterial strains used in the photo-oxidation tests are S. aureus ATCC 6538 and E. hirae ATCC 10541. The bacterial culture in exponential phase is obtained by inoculation in 10 mL of Nutrient Broth No. 2 and incubation at 37° C. Next the culture is centrifuged for 15 minutes at 3200 rpm and the pellet is resuspended in PBS 0.01 M in order to obtain a bacterial concentration equal to about 10^8 CFU/mL (Abs600≈0.1). This suspension was used for the photo-oxidation tests in the conditions described hereunder.
The photo-oxidative treatment was carried out using various light sources: • Lamp A: 100 W incandescent lamp, able to irradiate the bacterial suspension with a fluence rate equal to 40 W/m^2. The […] component of the luminous radiation is removed by filtering the light through a layer of water equal to 0.5 cm; • Lamp B: blue LED lamp, with maximum emission at 473 nm, connected to a power supply that controls its fluence rate between 24 and 50 W/m^2; • Lamp C: lamp with blue LED, with maximum emission at 473 nm, with a fluence rate equal to 10 W/m^2; • Lamp D: lamp with red LED, with maximum emission at 635 nm, with a fluence rate equal to 10 W/m^2.
(§4) The luminous intensity supplied by the light sources was evaluated by radiometer (DeltaOhm HD 2302.0 equipped with LP 471 RAD sensor).
The photo-oxidation tests were performed on a culture volume equal to 1 mL, using a plate with 48 wells with diameter of 1 cm and capacity of 1.5 mL. The multi-well plate is positioned above a magnetic stirrer and under the light source. A volume of a 330 μM solution of PCCox in DMSO is added to the bacterial suspension in order to obtain various concentrations of the photosensitizer (0.05 μM, 0.5 μM, 5 μM and 20 μM). The solution is stirred by small magnetic anchors throughout the treatment. The intrinsic toxicity, i.e. the toxicity not induced by the light, of the PCCox was evaluated on bacterial cultures of S. aureus and E. hirae incubated for 60 minutes in the dark with various concentrations of PCCox: in FIG. 3 are reported the results obtained on S. aureus; similar results were obtained with E. hirae. The percentage of DMSO present in the culture treated never exceeds 6%. […] In FIG. 4 are reported the results obtained with E. hirae; similar results were obtained with S. aureus.
The duration of the treatment is different for S. aureus (15, 30 and 60 minutes) and E. hirae (60 and 120 minutes).
The influence of a step of incubation of the bacterial culture in the dark in the presence of the molecule was evaluated before the irradiation step. In FIG. 5 are reported the results obtained with S. aureus.
At each time interval, a volume of bacterial suspension of 100 μL is taken and is diluted in PBS 0.01 M using an optimum dilution factor for the bacterial culture. From each dilution, 100 μL of bacterial suspension is taken (1000 μL is taken from the samples of primary effluent), seeded in MSA medium for S. aureus and Mf-Enterococcus Selective Agar for E. hirae on Petri dishes and incubated in the dark at 37° C. for 18-24 hours. The same procedure is carried out for the control samples, used for testing the activity of PCCox in the dark and the vitality of the bacterial suspension, without photosensitizer, exposed to the light or incubated in the dark. These samples are analysed at the end of the treatment. Each test is carried out at least in triplicate, and the survival data in terms of CFU/mL are expressed as the mean and standard deviation. The percentage survival is calculated respect to the concentration of bacteria measured on the control sample exposed to the light, analysed at the end of the test.

S. aureus = assay: Intrinsic toxicity of PCCox in the dark on bacterial cultures; settings: no light activation
Description: FIG. 3. Toxicity test of the pentaphyrine PCCox evaluating the vitality of a bacterial culture of S. aureus incubated for 60 minutes in the dark with various concentrations of 20-(4-carboxyphenyl)-2,13-dimethyl-3,12-diethyl-[22] pentaphyrine (PCCox) (0.05 μM, 0.5 μM and 5 μM).
The photo-oxidation tests were performed on a culture volume equal to 1 mL, using a plate with 48 wells with diameter of 1 cm and capacity of 1.5 mL. The multi-well plate is positioned above a magnetic stirrer and under the light source. A volume of a 330 μM solution of PCCox in DMSO is added to the bacterial suspension in order to obtain various concentrations of the photosensitizer (0.05 μM, 0.5 μM, 5 μM and 20 μM). […] The intrinsic toxicity, i.e. the toxicity not induced by the light, of the PCCox was evaluated on bacterial cultures of S. aureus and E. hirae incubated for 60 minutes in the dark with various concentrations of PCCox: in FIG. 3 are reported the results obtained on S. aureus; similar results were obtained with E. hirae. […]
as §2, with “treatment. Each test is carried out at least in triplicate, and the survival data in terms of CFU/mL are expressed as the mean and standard deviation.” for “treatment.”

E. hirae ATCC 10541 = assay: Photo-oxidation test, antibacterial activity on E. hirae; settings: PCCox 20 μM; 120 min of illumination with lamp B at 50 W/m2; preliminary tests
Description: as §3, with “hereunder. […]” for “hereunder.”
as §4, §1, §2

Compound: CCC1=C(C)c2cc3nc(c(-c4ccc(C(=O)O)cc4)c4ccc(cc5nc(cc6ccc(cc1n2)[nH]6)C(CC)=C5C)[nH]4)C=C3 [PCCox, 20-(4-carboxyphenyl)-2,13-dimethyl-3,12-diethyl-[22] pentaphyrine]
- percentage survival of enterococci ([1]; primary effluent, 10^4 CFU/mL, blue light 473 nm, 50 W/m^2): 31%
- die-off ([1]; primary wastewater, in terms of E. hirae, blue light 50 W/m^2): up to 70%
- Percentage bacterial load die-off (S. aureus ATCC 6538; PCCox 0.05 μM, 15 min): 99.77%
- Percentage bacterial load die-off (S. aureus ATCC 6538; PCCox 0.05 μM, 30 min): 99.9% and 99.89%
- bacterial load die-off (S. aureus ATCC 6538; PCCox 0.05 μM, 30 min of treatment, lamp A): 3 log
- Percentage bacterial load die-off (S. aureus ATCC 6538; PCCox 0.05 μM, 60 min): 99.97%
- Percentage bacterial load die-off (S. aureus ATCC 6538; PCCox 0.5 μM, 15 min): 100%
- Percentage bacterial load die-off (S. aureus ATCC 6538; PCCox 0.5 μM, 30 min): 99.99%
- Percentage bacterial load die-off (S. aureus ATCC 6538; PCCox 0.5 μM, 60 min): 100%
- Percentage bacterial load die-off (S. aureus ATCC 6538; PCCox 5 μM, 15 min): 99.9988%
- Percentage bacterial load die-off (S. aureus ATCC 6538; PCCox 5 μM, 30 min): 100%
- Percentage bacterial load die-off (S. aureus ATCC 6538; PCCox 5 μM, 60 min): 100%
- die-off (S. aureus ATCC 6538; PCCox 5 μM, 60 min with lamp A (100 W, 40 W/m^2), initial load 10^11-10^13 CFU/ml): 10 log
- die-off (S. aureus ATCC 6538; PCCox 5 μM, blue LED, maximum emission 473 nm, fluence rate between 24 and 50 W/m^2): 10 log
- bactericidal effect (S. aureus ATCC 6538; PCCox 5 μM, lamp C blue LED at 10 W/m^2, 60 min of illumination, pre-incubation 1 h in the dark): 3 log
- influence of incubation time on bactericidal efficiency (S. aureus ATCC 6538; PCCox 5 μM, with or without pre-incubation in the dark for 1 h, blue light 24 W/m^2): not influenced in any way by the incubation time
- initial bacterial load destroyed (S. aureus ATCC 6538; PCCox 5 μM, within 15 min of exposure to the light, initial load 10^8-10^13 CFU/ml): 99.999%
- bactericidal effect (phototoxic efficacy) (S. aureus ATCC 6538; white light (lamp A, 40 W/m^2), after 15 min of irradiation): 5 log
- bactericidal activity in the dark (S. aureus): does not have bactericidal activity in the dark
- die-off (E. hirae ATCC 10541): 4 log
